According to ChEMBL document CHEMBL5360669, “Novel Pyrazoloquinoline Compounds as KRAS Inhibitors for Treating Cancer” (ACS Med Chem Lett, 2023):
pIC50: −log10 of the molar value.

How the values were obtained:
[1] = Inhibition of KRAS G12C WB mutant (unknown origin) incubated for 2 hrs; parameters: species or system Homo sapiens
GTPase KRas [2] = biological target: T1, GTPase KRas (Homo sapiens, UniProt P01116, G12C); assay: Inhibition of KRAS G12C mutant (unknown origin) by measuring exchange of bodipy-GDP for GppNHp incubated for 2 hrs
GTPase KRas [3] = biological target: T1, GTPase KRas; assay: Inhibition of KRAS G12C mutant (unknown origin) incubated for 2 hrs

Measured: pIC50

T1 sequence (P01116 whole entry G12C): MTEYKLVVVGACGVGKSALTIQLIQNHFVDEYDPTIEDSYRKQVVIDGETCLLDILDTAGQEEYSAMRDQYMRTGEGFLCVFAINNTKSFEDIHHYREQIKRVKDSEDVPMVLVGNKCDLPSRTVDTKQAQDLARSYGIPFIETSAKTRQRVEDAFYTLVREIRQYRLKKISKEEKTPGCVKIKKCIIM

C=C(F)C(=O)N1CC[C@H](n2ncc3c(N4CC(N(C)CC)C4)nc4c(F)c(-c5c(C)c(C)cc6[nH]ncc56)c(Cl)cc4c32)C[C@H]1CC#N
≥ 7.00: all assays above

C=C(F)C(=O)N1CC[C@H](n2ncc3c(O[C@@H](C)[C@@H]4CCCN4C)nc4c(F)c(-c5nccc6cccc(C#N)c56)c(Cl)cc4c32)C[C@H]1CC#N
≥ 7.00: all assays above

CC#CC(=O)N1CC[C@H](n2ncc3c(O[C@@H](C)[C@@H]4CCCN4C)nc4c(F)c(-c5cccc6cccc(C#N)c56)c(C)cc4c32)C[C@H]1CC#N
≥ 7.00: all assays above

CC#CC(=O)N1CC[C@H](n2ncc3c(O[C@@H](C)[C@@H]4CCCN4C)nc4c(F)c(-c5nccc6cccc(C#N)c56)c(Cl)cc4c32)C[C@H]1CC#N
≥ 7.00: all assays above

COC/C=C/C(=O)N1CC[C@H](n2ncc3c(O[C@@H](C)[C@@H]4CCCN4C)nc4c(F)c(-c5nccc6cccc(C#N)c56)c(Cl)cc4c32)C[C@H]1CC#N
≥ 7.00: all assays above

COC/C=C/C(=O)N1CC[C@H](n2ncc3c(O[C@@H](C)[C@@H]4CCCN4C)nc4c(F)c(-c5cccc6cccc(C#N)c56)c(Cl)cc4c32)C[C@H]1CC#N
≥ 7.00: all assays above
